According to US10954253B2, “1,2-dihydro-3H-pyrazolo[3,4-d]pyrimidin-3-one derivative as Wee1 inhibitor” (SHIJIAZHUANG SAGACITY NEW DRUG DEVELOPMENT CO., LTD., priority 2017, dated 2021):

target: Wee1 (Homo sapiens (Human), UniProt P30291); test: In vitro enzymatic inhibitory activity (33P-ATP filter-binding kinase assay, MBP substrate); format: biochemical; settings: Wee-1 150 nM, MBP 20 μM
Description: The compounds of the present invention for experimental use were all self-prepared, and their chemical names and structural formulas are shown in the preparation embodiments of the respective compounds. The experimental tests were carried out in Reaction Biology Corporation, USA, and the experimental results were provided by the company. Basic reaction buffer: 20 mM hydroxyethylpiperazine ethanesulfuric acid (pH 7.5), 10 mM magnesium chloride, 1 mM EGTA, 0.02% Brij35, 0.02 mg/mL bovine serum albumin, 0.1 mM Na3VO4, 2 mM DTT, 1% DMSO Enzyme: Wee-1 concentration is 150 nM Matrix: MBP concentration is 20 μM The tested compound was formulated into a 5 mM solution with 100% DMSO, and a 10 points 3-fold gradient dilution was performed with DMSO through an automated pipetting station epMotion 5070. 1. Fresh matrix configuration reaction buffer was prepared; 2. The Wee-1 was added into the matrix solution and shaked gently; 3. DMSO solution of the compound were added into the kinase reaction mixture using an acoustic technique (Echo 550; nanoliter range) and incubated for 20 minutes at room temperature; 4. ^33P-ATP (specific activity, 10 μCi/μL) was added into the reaction mixture to stimulate the reaction; 5. Incubated for 2 hours at room temperature; 6. Kinase activity was detected by filter-binding method.

Sequence of Wee1 (P30291 whole entry): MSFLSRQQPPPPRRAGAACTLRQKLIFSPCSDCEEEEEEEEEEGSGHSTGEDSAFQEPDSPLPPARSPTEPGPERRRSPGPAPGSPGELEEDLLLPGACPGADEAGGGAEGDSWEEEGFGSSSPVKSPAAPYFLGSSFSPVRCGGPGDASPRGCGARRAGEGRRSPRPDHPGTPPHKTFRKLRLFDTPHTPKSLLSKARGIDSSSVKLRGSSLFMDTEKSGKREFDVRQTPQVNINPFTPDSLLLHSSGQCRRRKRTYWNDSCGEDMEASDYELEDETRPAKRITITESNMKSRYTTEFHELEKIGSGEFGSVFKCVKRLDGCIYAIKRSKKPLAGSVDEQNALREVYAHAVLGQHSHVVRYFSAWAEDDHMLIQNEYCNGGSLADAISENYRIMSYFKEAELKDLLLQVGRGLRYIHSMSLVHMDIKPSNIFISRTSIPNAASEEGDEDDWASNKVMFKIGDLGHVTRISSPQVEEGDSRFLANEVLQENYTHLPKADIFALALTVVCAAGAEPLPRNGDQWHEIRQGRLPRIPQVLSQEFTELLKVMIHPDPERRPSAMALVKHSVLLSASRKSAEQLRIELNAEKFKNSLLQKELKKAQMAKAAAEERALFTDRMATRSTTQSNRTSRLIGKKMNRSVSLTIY

Row | Structure (SMILES) | IC50
1 | C=CCn1c(=O)c2cnc(Nc3ccc(N4CCC5(CCN(C)CC5)CC4)cc3)nc2n1-c1cccc(O[C@@H]2CCOC2)n1 [Embodiment 52, (R)-2-allyl-6-((4(9-methyl-3,9-diazaspiro[5.5]undecan-3-yl)phenyl)amino)-1-(6-((tetrahydrofuran-3-yl)oxy)pyridin-2-yl)-1H-pyrazolo[3,4-d]pyrimidin-3(2H)-one] | 71 nM
2 | C=CCn1c(=O)c2cnc(Nc3ccc(N4CCC5(CCN(C)CC5)CC4)cc3)nc2n1-c1cccc(C2(O)COC2)n1 [Embodiment 42, 2-allyl-1-(6-(3-hydroxyoxetan-3-yl)pyridin-2-yl)-6-((4-(9-methyl-3,9-diazaspiro[5.5]undecan-3-yl)phenyl)amino)-1H-pyrazolo[3,4-d]pyrimidin-3(2H)-one] | 17.4 nM
3 | CN1CCC2(CC1)CCN(c1ccc(Nc3ncc4c(=O)n(Cc5ccccc5)n(-c5ccccc5)c4n3)cc1)CC2 [Embodiment 23, 2-benzyl-6-((4-(9-methyl-3,9-diazaspiro[5.5]undecane-3-yl)phenyl)amino)-1-phenyl-1H-pyrazolo[3,4-d](2H)-one] | 79.6 nM
4 | CN1CCC2(CC1)CCN(c1ccc(Nc3ncc4c(=O)n(CC(F)F)n(-c5ccccc5)c4n3)cc1)CC2 [Embodiment 22, 2-(2,2-difluroethyl)-6-((4-(9-methyl-3,9-diazaspiro[5.5]undecan-3-yl)phenyl)amino)-1-phenyl-1H-pyrazolo[3,4-d](2H)-one] | 239 nM
5 | C=CCn1c(=O)c2cnc(Nc3ccc(N4CCC5(CCN(C)CC5)CC4)cc3)nc2n1-c1cccc(OC)n1 [Embodiment 47, 2-allyl-1-(6-methoxypyridin-2-yl)-6-((4-(9-methyl-3,9-diazaspiro[5.5]undecan-3-yl)phenyl)amino)-1H-pyrazolo[3,4-d]pyrimidin-3(2H)-one] | 3 nM
6 | C=CCn1c(=O)c2cnc(Nc3ccc(N4CCC5(CCN(C)CC5)CC4)cc3)nc2n1-c1cccc(OCC)n1 [Embodiment 51, 2-allyl-1-(6-ethoxypyridin-2-yl)-6-((4-(9-methyl-3,9-diazaspiro[5.5]undecan-3-yl)phenyl)amino)-1H-pyrazolo[3,4-d]pyrimidin-3(2H)-one] | 2.8 nM
7 | C=CCn1c(=O)c2cnc(Nc3ccc(N4CCC5(CCN(C)CC5)CC4)cc3)nc2n1-c1cccc(C(N)=O)c1 [Embodiment 16, 3-(2-allyl-6-((4-(9-methyl-3,9-diazaspiro[5.5]undecan-3-yl)phenyl)amino)-3-oxo-2,3-dihydro-1H-pyrazolo[3,4-d]pyrimidin-1-yl)benzamide] | 52.8 nM
8 | C=CCn1c(=O)c2cnc(Nc3ccc(N4CCC5(CCN(CCOC)CC5)CC4)cc3)nc2n1-c1cccc(C(C)(C)O)n1 [Compound 64, 2-allyl-1-(6-(2-hydroxypropan-2-yl)pyridin-2-yl)-6-((4-(9-(2-methoxylethyl)-3,9-diazaspiro[5.5]undecan-3-yl)phenyl)amino)-1H-pyrazolo[3,4-d]pyrimidin-3(2H)-one] | 9.9 nM
9 | C=CCn1c(=O)c2cnc(Nc3ccc(N4CCC5(CCN(C)CC5)CC4)cc3C)nc2n1-c1cccc(C(C)(C)O)n1 [Embodiment 35, 2-allyl-1-(6-(2-hydroxypropan-2-yl)pyridin-2-yl)-6((2-methyl-4-(9-methyl-3,9-diazaspiro[5.5]undecan-3-yl)phenyl)amino)-1H-pyrazolo[3,4-d]pyrimidine-3(2H)-one] | 241 nM
10 | C=CCn1c(=O)c2cnc(Nc3ccc(N4CCC5(CCN(C)CC5)CC4)cc3)nc2n1-c1ccc(Cl)cn1 [Embodiment 26, 2-allyl-1-(5-chloropyridin-2-yl)-6-((4-(9-methyl-3,9-diazaspiro[5.5]undecan-3-yl)phenyl)amino)-1H-pyrazolo[3,4-d]pyrimidin-3(2H)-one] | 14.1 nM
11 | C=CCn1c(=O)c2cnc(Nc3ccc(N4CCC5(CCN(C)CC5)CC4)c(C)c3)nc2n1-c1cccc(C(C)(C)O)n1 [Embodiment 36, 2-allyl-1-(6-(2-hydroxypropan-2-yl)pyridin-2-yl)-6((3-methyl-4-(9-methyl-3,9-diazaspiro[5.5]undecan-3-yl)phenyl)amino)-1H-pyrazolo[3,4-d]pyrimidine-3(2H)-one] | 57.1 nM
12 | C=CCn1c(=O)c2cnc(Nc3ccc(N4CCC5(CCN(C(=O)OC)CC5)CC4)cc3)nc2n1-c1cccc(C(=O)N(C)C)n1 [Compound 70, methyl-9-(4-((2-allyl-1-(6-(dimethylaminoformyl)pyridin-2-yl)-3-oxo-2,3-dihydro-1H-pyrazolo[3,4-d]pyrimidin-6-yl)amino)phenyl)-3,9-diazaspiro[5.5]undecan-3-carboxylate] | 20.3 nM
13 | C=CCn1c(=O)c2cnc(Nc3ccc(N4CCC5(CCN(CCF)CC5)CC4)cc3)nc2n1-c1cccc(C(C)(C)O)n1 [Embodiment 60] | 14.8 nM
14 | C=CCn1c(=O)c2cnc(Nc3ccc(N4CCC5(CCN(C)CC5)CC4)cc3)nc2n1-c1cccc(C(C)(O)C(F)F)n1 (stereo not drawn) [Compound 78] | 32 nM
15 | C=CCn1c(=O)c2cnc(Nc3ccc(N4CCC5(CCN(C(=O)OC)CC5)CC4)cc3)nc2n1-c1cccc(C(C)(C)O)n1 [Embodiment 31, methyl-9-(4-((2-allyl-1-(6-(2-hydroxypropan-2-yl)pyridin-2-yl)-3-oxo-2,3-dihydro-1H-pyrazolo[3,4-d]pyrimidin-6-yl)amino)phenyl)-3,9-diazaspiro[5.5]undecan-3-ethyl carboxylate] | 15 nM
16 | C=CCn1c(=O)c2cnc(Nc3ccc(N4CCC5(CCN(C)CC5)CC4)cc3)nc2n1-c1ncccn1 [Embodiment 4, 2-allyl-6-((4-(9-methyl-3,9-diazaspiro[5.5]undecan-3-yl)phenyl)amino)-1-(pyrimidin-2-yl)-1H-pyazolo[3,4-d]pyrimidine-3(2H)-one] | 251 nM
17 | C=CCn1c(=O)c2cnc(Nc3ccc(N4CCC5(CCN(C)CC5)CC4)cc3)nc2n1-c1cccc(OC2CC2)n1 [Embodiment 50, 2-allyl-1-(6-cyclopropoxypyridin-2-yl)-6-((4-(9-methyl-3,9-diazaspiro[5.5]undecan-3-yl)phenyl)amino)-1H-pyrazolo[3,4-d]pyrimidin-3(2H)-one] | 2.5 nM
18 | C=CCn1c(=O)c2cnc(Nc3ccc(N4CCC5(CCN(C)CC5)CC4)cc3)nc2n1-c1cccc(Cl)c1 [Embodiment 11, 2-allyl-1-(3-chlorophenyl)-6-((4-(9-methyl-3,9-diazaspiro[5.5]undecan-3-yl)phenyl)amino)-1H-pyrazolo[3,4-d]pyrimidin-3(2H)-one] | 48.1 nM
19 | C=CCn1c(=O)c2cnc(Nc3ccc(N4CCC5(CCN(C)CC5)CC4)cc3OC)nc2n1-c1cccc(C(C)(C)O)n1 [Embodiment 37, 2-allyl-1-(6-(2-hydroxypropan-2-yl)pyridin-2-yl)-6((2-methoxy-4-(9-methyl-3,9-diazaspiro[5.5]undecan-3-yl)phenyl)amino)-1H-pyrazolo[3,4-d]pyrimidin-3(2H)-one] | 328 nM
20 | C=CCn1c(=O)c2cnc(Nc3ccc(N4CCC5(CCN(C)CC5)CC4)cc3)nc2n1-c1cccc(C(=O)NC)n1 [Embodiment 14, 6-(2-allyl-6-((4-(9-methyl-3,9-diazaspiro[5.5]undecan-3-yl)phenyl)amino)-3-oxo-2,3-dihydro-1H-pyrazolo[3,4-d]pyrimidin-1-yl)-N-methylpicolinamide] | 47.8 nM
21 | C=CCn1c(=O)c2cnc(Nc3ccc(N4CCC5(CCN(C)CC5)CC4)cc3)nc2n1-c1ccccc1 [Embodiment 1, 2-allyl-6-((4-(9-methyl-3,9-diazaspiro[5.5]undecan-3-yl)phenyl)amino)-1-phenyl-1H-pyrazolo[3,4-d]pyrimidin-3(2H)-one] | 67.4 nM
22 | C=CCn1c(=O)c2cnc(Nc3ccc(N4CCC5(CCN(C)CC5)CC4)cc3)nc2n1-c1cccc([C@@](C)(O)C(F)(F)F)n1 [Compound 74, (R)-2-allyl-6-((4-(9-methyl-3,9-diazaspiro[5.5]undecan-3-yl)phenyl)amino)-1-(6-(1,1,1-trifluoro-2-hydroxypropan-2-yl)pyridin-2-yl)-1H-pyrazolo[3,4-d]pyrimidin-3(2H)-one] | 13 nM
23 | C=CCn1c(=O)c2cnc(Nc3ccc(N4CCC5(CC4)CCN(C4COC4)CC5)cc3)nc2n1-c1cccc(C(C)(C)O)n1 [Compound 69] | 5.7 nM
24 | C=CCn1c(=O)c2cnc(Nc3ccc(N4CCC5(CCN(C)CC5)CC4)cc3)nc2n1-c1cccc(C2(O)CC(F)(F)C2)n1 [Compound 66, 2-allyl-1-(6-(3,3-difluoro-1-hydroxycyclobutyl)pyridin-2-yl)-6-((4-(9-methyl-3,9-diazaspiro[5.5]undecan-3-yl)phenyl)amino)-1H-pyrazolo[3,4-d]pyrimidin-3(2H)-one] | 15 nM
25 | C=CCn1c(=O)c2cnc(Nc3ccc(N4CCC5(CCN(C)CC5)CC4)cc3)nc2n1-c1cccc(C2(C)CC2)n1 [Compound 68, 2-allyl-6-((4-(9-methyl-3,9-diazaspiro[5.5]undecan-3-yl)phenyl)amino)-1-(6-(1-methylcyclopropyl)pyridin-2-yl)-1H-pyrazolo[3,4-d]pyrimidin-3(2H)-one] | 30.4 nM
26 | C=CCn1c(=O)c2cnc(Nc3ccc(N4CCC5(CCN(C)CC5)CC4)cc3)nc2n1-c1cccc(OC(C)C)n1 [Embodiment 48, 2-allyl-1-(6-isopropoxypyridin-2-yl)-6-((4-(9-methyl-3,9-diazaspiro[5.5]undecan-3-yl)phenyl)amino)-1H-pyrazolo[3,4-d]pyrimidin-3(2H)-one] | 6.3 nM
27 | C=CCn1c(=O)c2cnc(Nc3ccc(N4CCC5(CCN(C)CC5)CC4)cc3)nc2n1-c1nccs1 [Embodiment 9, 2-allyl-6-((4-(9-methyl-3,9-diazaspiro[5.5]undecan-3-yl)phenyl)amino)-1-(thiazol-2-yl)-1H-pyrazolo[3,4-d]pyrimidin-3(2H)-one] | 109 nM
